Three substances from paper PMC10980815, “Cell surface patching via CXCR4-targeted nanothreads for cancer metastasis inhibition” (Nature Communications, 2024) can be followed below.

For one series, the system named is 4T1 cells. The experiment in a line: Label-free proteomics analysis. The series is classed as cell-based, murine. Conditions: Fig. 4f proteomics heatmap value. The protocol: For proteomics analysis, 4T1 cells (5 × 10^5 cells) were seeded in 12-well plates (NEST Biotechnology). […] Cell samples were submitted for label-free proteomics analysis (Shanghai Omics-space Biotech Co., Ltd., Shanghai, China). The analysis included protein extraction, protein digestion, LC − MS/MS detection (Thermo Scientific Orbitrap-Fusion Lumos), protein quantitation and identification (MaxQuant 1.5.5.1), and bioinformatics analysis.

Series [1] has as its system orthotopic 4T1 breast tumors. As to the kind of experiment: Tumor-infiltrating CD8+ T lymphocytes, Tregs and MDSCs (flow cytometry). The series is classed as in vivo, female BALB/c mice. Conditions: for CD3+CD8+ T cells (%) in tumor / CD11b+Gr1+ MDSCs (%) in tumor / Tregs (%) in CD4+ T cells: Supplementary Fig. 16a; for intratumoral Tregs and MDSCs: three i.v. cycles days 7, 14, 21, day 28, no PDT. As to the method:
4T1 cells (1 × 10^6 cells) were injected into the third mammary fat pad of female BALB/c mice (6–8-week). When tumor volumes reached nearly […] on day 7 after tumor inoculation, mice were randomly divided into 8 groups (n = 8 per group). For four groups without laser irradiation (−), mice were intravenously injected with the following samples: (1) saline on day 7, 14, 21, and 28, (2) P-PS on day 7, 14, 21, and 28, (3) P-BS-PS on day 7, 14, 21, and 28, or (4) P-BS-CM1 on day 7, 14, 21, and 28, followed by P-PS-CM2 on day 8, 15, 22, and 29 (5 mg/kg BS equivalence, CM1:CM2 1:1 mol%, 2.5 mg/kg PS equivalence), respectively. For four groups with laser irradiation (+), mice were treated with the same regimens and irradiated at 650 nm laser (580 mW/cm^2, 5 min) on day 9, 16, 23 and 30. Tumor volumes and mice survivals were recorded every other day. For the investigation of immune response and lung metastasis, 4T1 tumor-bearing female BALB/c mice (6–8-week, tumor volume~100 mm^3) were randomly divided into 8 groups (n = 5 per group) and given three rounds of above treatments. On day 28, lungs and tumors were harvested. lungs were fixed with Bouin’s solution. The pulmonary metastatic nodules were counted and analyzed by hematoxylin-eosin staining. Single-cell suspensions of tumor tissues were stained with anti-CD45-PerCP/Cy5.5 (1:300 dilution) and anti-calreticulin recombinant rabbit monoclonal antibody (1:500 dilution) at 4 °C for 1 h, and then stained with goat anti-rabbit IgG H&L Alexa Fluor® 647 (1:1000 dilution, 4 °C, 45 min), followed by flow cytometry analysis. ATP and HMGB1 concentrations in the supernatant of cell suspension were measured using a luciferase-based ATP assay kit and a mouse HMGB1 ELISA kit, respectively. Single-cell suspensions of tumors were stained with FITC anti-mouse CD3 antibody (1:300 dilution), PerCP/Cyanine5.5 anti-mouse CD4 antibody (1:300 dilution), anti-CD8α-APC (1:300 dilution), and anti-Foxp3-PE (1:300 dilution) for flow cytometry analysis of T cell subtypes (CD8^+ T cells, CD4^+ effector T cells, and Foxp3^+ regulatory T cells), and stained with PE anti-mouse/human CD11b antibody (1:300 dilution) and FITC anti-mouse Ly-6G/Ly-6C (Gr-1) antibody (1:300 dilution) for flow cytometry analysis of MDSCs (CD11b^+Gr1^+). Cytotoxic T cells in tumor tissues were investigated with immunofluorescent staining of IFN-γ and flow cytometry analysis using anti-IFN-γ-PE (1:300 dilution). For CD8-depletion assay, 4T1 tumor-bearing female BALB/c mice (6–8-week, tumor volume~100 mm^3) were randomly divided into 3 groups (n = 8 per group). Mice were intravenously given four doses of P-BS-CM1 on day 7, 14, 21 and 28, combined with P-PS-CM2 on day 8, 15, 22 and 29 (5 mg/kg BS equivalence, CM1:CM2 1:1 mol%, 2.5 mg/kg PS equivalence) in the presence or absence of InvivoMab anti-mouse CD8α (100 μg/mice). Mice were irradiated at 650 nm laser (580 mW/cm^2, 5 min) on day 9, 16, 23 and 30. Tumor volumes and mice survivals were recorded every other day.

In series [2] the test system is orthotopic 4T1 breast tumors. As to the kind of experiment: Spontaneous lung metastasis model: tumor volume and pulmonary metastatic nodules. It counts as in vivo, female BALB/c mice. Conditions: for Number of metastatic nodules: Fig. 5e, pulmonary. The protocol: For the in vivo investigation of pulmonary metastasis, 4T1 cells (1 × 10^6 cells) were injected into the third mammary fat pad of female BALB/c mice (6–8 weeks). […] Tumor volumes were recorded every other day. On day 28, lungs were harvested and fixed with Bouin’s solutions. The pulmonary metastatic nodules were counted and analyzed by hematoxylin-eosin staining.

The nature of series [3]: Hydrodynamic size / size distribution by dynamic light scattering. It counts as physicochemical. Conditions: Malvern Zetasizer Nano ZS90, mean ± SD. The protocol:
The average molecular weight (Mw) and polydispersity (PDI) of the HPMA copolymer conjugates were determined by gel permeation chromatography (GPC) on an AKTA purifier equipment with a Superose 6 10/300 GL analytical column (GE Healthcare, USA) and a differential refraction detector (KNAUER, 2300, Germany). Hydrodynamic sizes and zeta potentials were determined using a Malvern Zetasizer Nano ZS90 equipment (Malvern Instruments Ltd, Malvern, UK). The contents of BS, CM1, and CM2 were determined using a bicinchoninic acid (BCA) protein assay. The PS concentration was determined by ultraviolet-visible (UV-Vis) spectroscopy at its characteristic absorbance peak (660 nm).
To investigate the coiled-coil assembly, varying CM1-to-CM2 ratios (3:1, 1:1, and 1:3) of P-BS-CM1 and P-CM2 were mixed in 10 mM PBS (pH 7.4) at 25 °C for 10 min. The total polymer concentration was kept constant at 10 mg/mL. Circular dichroism spectra, size distribution, and rheological properties of P-BS-CM1, P-CM2, and their mixture were measured. The surface morphology of P-BS-CM1 and the mixture (P-BS-CM1 + P-CM2) was observed using scanning electron microscopy. Additionally, for the FRET assay, CM1-to-CM2 equimolar of P-BS-CM1-Cy5 and P-CM2-Cy3 were mixed in 10 mM PBS (pH 7.4) at 25 °C for 10 min. Fluorescent spectra of P-BS-CM1-Cy5, P-CM2-Cy3, and the mixture (P-BS-CM1-Cy5+P-CM2-Cy3) were recorded at the Cy3 excitation wavelength of 550 nm.

Ends that are not written are not given here. HPMA copolymer = HPMA copolymer made by RAFT copolymerization of HPMA with N-(3-aminopropyl)methacrylamide (APMA), bearing maleimide groups for grafting

For the substance LGASWHRPDKCCLGYQKRPLPA [Free BS], the entries for the “PKA C-alpha” value with 4T1 cells (replicate 1), with 4T1 cells (replicate 2) and in the series on 4T1 cells (replicate 3) were -0.6179, 0.3837 and -0.4642, respectively. In addition, the VDAC3 in the series with 4T1 cells (replicate 1) is given as 0.5272; in the series on 4T1 cells (replicate 2) it was -0.8599; with 4T1 cells (replicate 3), 0.1524. Further, the “CD3+CD8+ T cells (%) in tumor” value in series [1] (replicate 1 of 5) worked out at 0.123%; in series [1] (replicate 2 of 5) it was 0.1188%; in series [1] (replicate 3 of 5), 0.1444%; in series [1] (replicate 4 of 5), 0.1085%; in series [1] (replicate 5 of 5) it was 0.1016%. Further, the “CD11b+Gr1+ MDSCs (%) in tumor” value in series [1] (replicate 1 of 5) stood at 19.37%; in series [1] (replicate 2 of 5), 18.11%; in series [1] (replicate 3 of 5), 26.3%; in series [1] (replicate 4 of 5), 21.21%; in series [1] (replicate 5 of 5), 17.61%. Moreover, the “Tregs (%) in CD4+ T cells” value in series [1] (replicate 1 of 5) is recorded as 22.46%; in series [1] (replicate 2 of 5), 19.38%; in series [1] (replicate 3 of 5) it was 19.75%; in series [1] (replicate 4 of 5) it was 21.91%; in series [1] (replicate 5 of 5), 22.71%. Besides, in series [1], the “intratumoral Tregs and MDSCs” value is recorded as “not affected”. Also, the “Number of metastatic nodules” value in series [2] (mouse 1) is on record as 31; in series [2] (mouse 2), 28; in series [2] (mouse 3), 25; in series [2] (mouse 4) it was 36; in series [2] (mouse 5) it was 27. The “lung metastatic nodule burden at endpoint” value in series [2] (three weekly i.v. cycles, day 28) is “high metastatic nodule burdens”.

For “P-BS: HPMA copolymer-BS conjugate, ~6 BS grafts per polymer (LGASWHRPDKCCLGYQKRPLPA; not fully specified (residues 11, 12); also: about 6 peptides grafted on HPMA copolymer via cysteine-maleimide thioether links)”, the “PKA C-alpha” value is listed as -1.375 in the series on 4T1 cells (replicate 1), 0.3768 in the series on 4T1 cells (replicate 2) and 0.8503 in the series on 4T1 cells (replicate 3). Further, the VDAC3 is recorded as -0.0121 in the series with 4T1 cells (replicate 1), 1.023 in the series with 4T1 cells (replicate 2) and 1.779 in the series on 4T1 cells (replicate 3). The “CD3+CD8+ T cells (%) in tumor” value in series [1] (replicate 1 of 5) turned out to be 0.1153%; in series [1] (replicate 2 of 5), 0.2531%; in series [1] (replicate 3 of 5), 0.2407%; in series [1] (replicate 4 of 5), 0.1577%; in series [1] (replicate 5 of 5), 0.2259%. Also, the “CD11b+Gr1+ MDSCs (%) in tumor” value in series [1] (replicate 1 of 5) turned out to be 12.4%; in series [1] (replicate 2 of 5), 14.84%; in series [1] (replicate 3 of 5), 14.8%; in series [1] (replicate 4 of 5) it was 14.66%; in series [1] (replicate 5 of 5), 15.36%. For the same substance, the “Tregs (%) in CD4+ T cells” value in series [1] (replicate 1 of 5) was 15.81%; in series [1] (replicate 2 of 5) it was 15.31%; in series [1] (replicate 3 of 5), 13.12%; in series [1] (replicate 4 of 5) it was 11.55%; in series [1] (replicate 5 of 5), 16.67%. Moreover, the “intratumoral Tregs and MDSCs” value in series [1] is on record as “moderately decreased”. This substance also returned a Size in series [3] of 15.7±0.8 nm. Moreover, the “Number of metastatic nodules” value was found to be 15 in series [2] (mouse 1); 17 in series [2] (mouse 2); 22 in series [2] (mouse 3); 19 in series [2] (mouse 4); 28 in series [2] (mouse 5).

“P-CM2-Cy3: Cy3-labeled P-CM2 (C(HPMA copolymer)YGGEVSALEKEVSALEKKNSALEKEVSALEKEVSALEK; also: Cy3 label on conjugate, position not given here)” yielded a Size in series [3] of 20.4±0.5 nm.
